Assay type in all cases: cell-based, human
For experiment [1], the system named is ALAS1. Kind of experiment: qRT-PCR analysis of ALAS1 expression in SHSY5Y cells. The note with it: 5 mM ALA for 15 hours vs non-treated. As for the experimental part: (§1) (A) Heme content in SHSY5Y cells non-treated (NT) or treated with 5 mM ALA for 15 hours. Values are expressed as pmol heme/mg protein. Data represent mean±SEM, n=3; *=P<0.05. (B, C) qRT-PCR analysis of the expression of ALAS1 (B) and FLVCR1a (C) in SHSY5Y cells non-treated (NT) or treated with 5 mM ALA for 15 hours. Transcript abundance, normalized to beta-actin mRNA expression, is expressed as a fold increase over a calibrator sample. Data represent mean±SEM, n=4. For statistical analyses, an unpaired Student's t-test was used; *p<0.05. (D) qRT-PCR analysis of the expression of ALAS1 in SKCO1 cells untreated (NT) or treated with 5 mM ALA for 24 hours. Transcript abundance, normalized to beta-actin mRNA expression, is expressed as a fold increase over a calibrator sample. Data represent mean±SEM, n=5. […] Band intensities were measured by densitometry and normalized to beta-actin expression. […] (F) Proliferation of SHSY5Y cells assessed by crystal violet staining at different time points (starting from the day after plating, named “day 0”). Treatment with 5 mM ALA occurred at “day 0” and cells were monitored until the end of the experiment without medium refresh. […] (G) SKCO1 cells viability measured by the CellTiter-Fluor Cell Viability Assay (Promega, Madison, WI USA, catalog n°G6080) at different time points, starting from the day after plating (named “day 0”), as a readout of cell proliferation. […]

The subject of experiment [2] is ALAS1. Kind of experiment: Western blot analysis of ALAS1 expression in SKCO1 cells. The note with it: 5 mM ALA for 16, 24 and 48 hours vs untreated. As for the experimental part:
as §1
Background: Immunoblotting shows a protein as a band on a membrane.

Another experiment concerns SHSY5Y cells. As to the kind of experiment: Proliferation of SHSY5Y cells by crystal violet staining. To be noted: 5 mM ALA at day 0, no medium refresh. As for the experimental part: as §1

In the case of `Cl.NCC(=O)CCC(=O)O` [5-ALA, 5-Aminolevulinic acid hydrochloride], in the experiment with ALAS1 [1], the ALAS1 transcript levels entry is on record as “reduced”. Moreover, the ALAS1 protein levels entry with ALAS1 [2] was “decreased”. Further, the cell proliferation entry in the experiment with SHSY5Y cells is “reduced SHSY5Y cell proliferation”.

(Values after patent US20240285670A1, “THERAPEUTIC TREATMENT OF TUMORS BY BLOCKING THE HEME SYNTHESIS-EXPORT AXIS” (Università degli Studi di Torino, priority 2021, published 2024).)
